Consider 7 compounds from patent US12527329B2, “Compositions and methods relating to insecticides” (priority 2019, dated 2026).

Read-outs that look alike come from different tables or passages of the source.

Data set [1] concerns pyrethroid-susceptible strain of Aedes aegypti (Orlando). The data set is classed as in vivo. The conditions noted are these: topical; for KD50: 1-hr; for LD50: 24-hr. The protocol: (§1) Aedes aegypti mosquitoes (susceptible Orlando strain and pyrethroid resistant Puerto Rico strain) were reared using standard protocols and provided by the United States Department of Agriculture—Center of Medical, Agricultural, and Veterinary Entomology (Gainesville, FL). Adult mosquitoes were anesthetized on ice, and the females treated with 0.2 μL of ethanolic solution using a repeating micro-applicator (Hamilton Co., Reno, NV). Ten females were used per concentration and taken from at least three different emerged cohorts. Knockdown (defined as inability to fly or orient in the upright direction) was recorded at 1 hr or other time points post application (depending on the experiment), whereas mortality (defined as no movement—ataxia) was recorded at 24 hr. […] Synergism studies were performed using the maximal sublethal dose of the fir needle oil in combination with varying concentrations of insecticide to calculate the LD50 value of the insecticide in combination with the natural synergist. SAS 9.4 software was used to calculate the LD50 values using a PROC PROBIT model with Abbott's correction to account for any control mortality. Synergist ratios were calculated as: KD50 or LD50 of compound alone÷KD50 or LD50 of compound+Fir needle oil.

Data set [2] relates to pyrethroid-resistant Aedes aegypti strain (Puerto Rico). In words: Topical application on the pyrethroid-resistant Puerto Rico strain: 24-hr LD50 and 1-hr KD50. To be noted: alone or with FNO 5%. More on the design: unit not given beside the values. In kind it is in vivo. The protocol: as §1
For data set [3], the system named is Aedes aegypti mosquitoes. In kind it is in vivo. The protocol: This plant essential oil has been screened in combination with natural pyrethrins to assess the ability of this oil and these compositions to increase mortality and knockdown at 24-hr and 1-hr, respectively. […] As described herein, all compounds were dissolved and applied topically in ethanol or acetone.
An example of such synergism can be seen in FIG. 4. FIG. 4 is a graph showing synergism of insecticide (natural pyrethrins, NPs), piperonyl butoxide (PBO), and the combination thereof on mortality (24 hour) of Aedes aegypti mosquitoes. Mosquitoes were treated topically with 0.2 μL of different concentrations of insecticide+1% or 5% (w/v) piperonyl butoxide (PBO) in acetone. Mortality was recorded 24 hr after treatment.
Another example of such synergism is shown in FIG. 5, which is a graph showing antagonism of (natural pyrethrins, NPs), PBO, and the combination on knockdown (1 hour) of Aedes aegypti mosquitoes. Mosquitoes were treated with 0.2 μL different concentrations of insecticide+1% or 5% (w/v) PBO oil in acetone. Mortality was recorded 24 hr after exposure. FIG. 6 is an annotated version of FIG. 5 with arrows denoting statistically significant reduction in knockdown effect.
FIG. 7 is a graph showing synergism of (natural pyrethrins, NPs), fir needle oil, and the combination thereof on knockdown (1 hour) and mortality (24 hour) of Aedes aegypti mosquitoes. Mosquitoes were treated with 0.2 μL of different concentrations of insecticide+1% or 5% (w/v) fir needle oil in acetone. Mortality was recorded 24 hr after exposure.
as §1

The test system of data set [4] is ethoxycoumarin de-ethylase (cytochrome P450 mono-oxygenase). In words: Ethoxycoumarin de-ethylase activity assay on homogenates of topically treated mosquitoes. The data set is classed as biochemical, Aedes aegypti. The conditions noted are these: 0.2 μL of 5% (w/v) topically, 4 hr before homogenization; ANOVA with Tukey's posttest, P<0.05 (FIG. 9). The protocol:
Ethoxycoumarin de-ethylase activity was measured according the methods of Anderson and Zhu (2004) with minor modifications. In short, mosquitoes were treated with 0.2 μL of fir needle oil or delta-carene 5% w/v solution in ethanol and incubated for 4 hr prior to sacrificing treated insects. Approximately 100 insects were homogenized in 0.1 PBS solution, and homogenates centrifuged at 10,000×g for 20 minutes at 4° C. The resulting supernatant containing microsomes was then used as the enzyme preparation for the remainder of the assay. In each well, 20 μL of enzyme preparation was added to a final volume of 100 μL 0.1 PBS containing 250 μM reduced β-NADPH and 2 mM ethoxycoumarin. After adding the enzyme solution to the wells, plates were incubated at room temperature for 3 hr. After 3 hr incubation, 10 μL of 3.2 mM of oxidized glutathione was added to each well and 1 U of yeast glutathione reductase was added to each well. […] Fluorescence values were then read at 390/465 nm excitation/[…].

Setting [5] is: 1-hr knockdown, topical, insecticide with or without 1% fir needle oil, ng dose per mg insect body weight.

For `O=[N+]([O-])N=C1NCCN1Cc1ccc(Cl)nc1` [Imidacloprid, 1-(6-chloro-3-pyridylmethyl)-N-nitroimidazolidin-2-ylideneamine], in data set [1] (alone or with FNO 5%), the KD50 is 3.7 ng/mg and the LD50 stood at 1.1 ng/mg. In data set [2], the KD50 is 10.7.
Turning to `CNC(=N[N+](=O)[O-])NCc1cnc(Cl)s1` [Clothianidin, 1-(2-Chloro-1,3-thiazol-5-ylmethyl)-3-methyl-2-nitroguanidine], the KD50 in data set [1] (alone or with FNO 5%) came out at 22 ng/mg; in data set [1] (clothianidin alone or with 5% w/v FNO, delta-3-carene or bornyl acetate (Table 3)), 22; in data set [2] it was 9.15; in data set [3] (setting [5]), 22 ng/mg. For the same compound, the LD50 stood at 4.5 ng/mg in data set [1] (alone or with FNO 5%) and 4.5 ng/mg in data set [3] (24-hr lethal dose, topical, insecticide with or without 1% fir needle oil, ng dose per mg insect body weight).
With `CC1(C)[C@H](C(=O)O[C@H](C#N)c2cccc(Oc3ccccc3)c2)[C@@H]1C=C(Br)Br` [Deltamethrin, (S)-α-cyano-3-phenoxybenzyl (1R)-cis-3-(2,2-dibromovinyl)-2,2-dimethylcyclopropanecarboxylate], the KD50 in data set [3] (setting [5]) was 0.003 ng/mg.
On to `N#Cc1nn(-c2c(Cl)cc(C(F)(F)F)cc2Cl)c(N)c1[S+]([O-])C(F)(F)F` (stereo not shown) [Fipronil], for which, in data set [1] (alone or with FNO 5%), the KD50 came to 10.7 ng/mg and the LD50 came out at 0.1 ng/mg.
On the same counts, the results for `CN1COCN(Cc2cnc(Cl)s2)C1=N[N+](=O)[O-]` [Thiamethoxam, 3-((2-chloro-5-thiazolyl)methyl)-5-methyl-4-nitroiminotetrahydro-1,3,5-oxadiazine] are 17.2 ng/mg and 3.4 ng/mg.
Consider `CC1=CCC2C(C1)C2(C)C` (stereo not shown) [delta-carene, delta-3-carene], for which, in data set [4], the “ethoxycoumarin de-ethylase (cytochrome P450 mono-oxygenase) activity versus vehicle-treated mosquitoes” value is “not increasing P450 activity”.
As for `CC1(C)C(C=C(Cl)Cl)C1C(=O)OCc1cccc(Oc2ccccc2)c1` (racemic) [Permethrin, 3-phenoxybenzyl (1RS)-cis,trans-3-(2,2-dichlorovinyl)-2,2-dimethylcyclopropanecarboxylate], in data set [1] (alone or with FNO 5%), the KD50 was found to be 0.06 ng/mg and the LD50 is listed as 0.09 ng/mg. In data set [3] (in vivo), the KD50 amounted to 0.06 ng/mg and the LD50 is listed as 0.09 ng/mg.
